Reference: patent publication US7998986B2, “Modulators of LXR” (Exelixis Patent Company LLC, priority 2001, dated 2011)

Assays:
[1] = target: T1, LXRα (Homo sapiens, UniProt Q13133); assay: Scintillation proximity assay (SPA), displacement of 3H-24,25-epoxycholesterol; parameters: made in house; details: scintillation proximity binding assay; average of at least two dose response experiments; read-out: Ki(α)
T1 sequence (Q13133 1-447): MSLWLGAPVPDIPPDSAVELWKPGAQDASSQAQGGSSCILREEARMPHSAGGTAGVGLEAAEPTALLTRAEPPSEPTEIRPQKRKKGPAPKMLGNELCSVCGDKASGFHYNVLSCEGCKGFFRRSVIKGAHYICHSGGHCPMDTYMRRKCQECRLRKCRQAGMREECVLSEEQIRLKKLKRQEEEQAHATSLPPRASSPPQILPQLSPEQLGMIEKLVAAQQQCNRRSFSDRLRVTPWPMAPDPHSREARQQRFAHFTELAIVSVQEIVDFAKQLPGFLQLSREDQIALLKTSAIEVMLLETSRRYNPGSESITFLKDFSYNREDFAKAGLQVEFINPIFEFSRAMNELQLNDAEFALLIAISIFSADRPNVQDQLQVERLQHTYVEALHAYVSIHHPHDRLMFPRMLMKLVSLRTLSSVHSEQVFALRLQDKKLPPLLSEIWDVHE
T1 sequence (P19793 1-462 partner): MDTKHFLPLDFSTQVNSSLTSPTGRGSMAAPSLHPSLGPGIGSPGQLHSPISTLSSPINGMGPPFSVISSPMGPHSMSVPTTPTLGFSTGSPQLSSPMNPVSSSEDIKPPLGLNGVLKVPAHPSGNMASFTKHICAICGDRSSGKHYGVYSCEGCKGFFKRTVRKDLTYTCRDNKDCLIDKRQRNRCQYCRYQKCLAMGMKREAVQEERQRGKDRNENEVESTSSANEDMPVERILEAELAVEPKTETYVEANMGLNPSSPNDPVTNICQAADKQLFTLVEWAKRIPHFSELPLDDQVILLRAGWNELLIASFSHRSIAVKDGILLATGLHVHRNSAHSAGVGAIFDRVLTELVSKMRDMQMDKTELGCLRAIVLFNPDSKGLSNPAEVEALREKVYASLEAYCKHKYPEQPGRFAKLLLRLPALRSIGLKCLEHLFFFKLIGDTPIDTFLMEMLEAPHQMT
Procedure: (§1) The SPA assay measures the radioactive signal generated by the binding of ^3H-24, 25-epoxycholesterol to LXRα or LXRβ. The basis of the assay is the use of SPA beads containing a scintillant, such that when binding to the receptor brings the labeled ligand into proximity with the bead, the energy from the label stimulates the scintillant to emit light. The light is measured using a standard microplate scintillation reader. The ability of a ligand to bind to a receptor can be measured by assessing the degree to which the compound can compete off a radiolabelled ligand with known affinity for the receptor.
(§2) A. Required Materials • 1. Label: ^3H-24, 25-epoxy-cholesterol (Amersham) • 2. LXRα lysate: Baculovirus expressed LXRα/RXR heterodimer with RXR having a 6-HIS tag produced as a crude lysate • 3. LXRβ lysate: Baculovirus expressed LXRβ/RXR heterodimer with RXR having a 6-HIS tag produced as a crude lysate • 4. SPA beads: Ysi copper His-tag SPA beads (Amersham) • 5. Plates: Non-binding surface 96-well plate (Corning) • 6. Protein lysate dilution buffer: (20 mM Tris-HCl pH 7.9, 500 mM NaCl, 5 mM Imidazole). • 7. 2×SPA Buffer: (40 mM K2HPO4/KH2PO4 pH7.3, 100 mM NaCl, 0.05% Tween 20, 20% Glycerol, 4mM EDTA) • 8. 2×SPA Buffer w/o EDTA: (40 mM K2HPO4/KH2PO4 pH7.3, 100 mM NaCl, 0.05% Tween 20, 20% Glycerol)
(§3) B. Preparation of Screening Reagents • 1. [^3H]24,25 Epoxycholesterol (EC) solution. For a single 384-well plate (or 400 wells), add 21 μl [^3H] EC (specific activity 76.5Ci/mmol, concentration 3.2mCi/ml) in 4.4 ml of 2×SPA buffer to a final concentration of 200nM. For each additional 384-well plate, add 19.1 μl additional [^3H] EC and 4.0 ml additional 2×SPA buffer. The final concentration of [^3H] EC in the well will be 50 nM. • 2. Dilute LXRα lysate with protein lysate dilution buffer. Make 1400 μl of diluted LXRα lysate for a 384-well plate, (or 200 wells) and 1120 μl of diluted LXRα lysate for each additional 384-well plate. • 3. Diluted LXRβ lysate with protein lysate dilution buffer. Make 1400 μl of diluted LXRβ lysate for 1 a 384-well plate, (or 200 wells) and 1120 μl of diluted LXRβ lysate for each additional 384-well plate. • 4. SPA bead solution. For 1 a 384-well plate (or 400 wells), mix 3.75 ml of 2× SPA buffer w/o EDTA, 2.25 ml of H2O, and 1.5 ml of Ysi His-tag SPA beads (Vortex well before taking). For each addition 384-well plate, mix additional 3.5 ml of 2×SPA buffer w/o EDTA, 2.1 ml of H2O, and 1.4 ml of Ysi His-tag SPA beads to the SPA bead solution.
(§4) C. Procedure: • 1. Prepare appropriate dilutions of each compound and pipette into the appropriate wells of a multiwell plate. • 2. Add 9.1 μl of [^3H] EC to each well of column 2-23 of the multiwell plate. • 3. Add 5 μl of diluted LXRα lysate to each well of column 2-23 on odd rows of the multiwell plate. • Add 5 μl of diluted LXRβ lysate to each well of column 2-23 on even rows of the multiwell plate. • 4. Add 17.5 μl of SPA bead solution to each well of column 2-23 of the multiwell plate. • 5. Cover the plates with clear sealer. Place the plates in the MicroBeta. Incubate at room temperature for 1 hr. • 6. Count using program n ABASE 3H—384DPM. The setting for n ABASE 3H—384DPM is:
(§5) Assays for LXRα and LXRβ were performed in the identical manner. The determined Ki represents the average of at least two independent dose response experiments. The binding affinity for each compound may be determined by non-linear regression analysis using the one site competition formula to determine the IC50 where:
(§6) [formula] The Ki is than calculated using the Cheng and Prusoff equation where:
(§7) [formula] Ligand=50 nM EC and Kd=200 nM as determined by saturation binding

[2] = target: T2, LXRβ (Homo sapiens, UniProt P55055); assay: as above; parameters: made in house; details: scintillation proximity binding assay; average of at least two dose response experiments; read-out: Ki(β)
T2 sequence (P55055 1-460): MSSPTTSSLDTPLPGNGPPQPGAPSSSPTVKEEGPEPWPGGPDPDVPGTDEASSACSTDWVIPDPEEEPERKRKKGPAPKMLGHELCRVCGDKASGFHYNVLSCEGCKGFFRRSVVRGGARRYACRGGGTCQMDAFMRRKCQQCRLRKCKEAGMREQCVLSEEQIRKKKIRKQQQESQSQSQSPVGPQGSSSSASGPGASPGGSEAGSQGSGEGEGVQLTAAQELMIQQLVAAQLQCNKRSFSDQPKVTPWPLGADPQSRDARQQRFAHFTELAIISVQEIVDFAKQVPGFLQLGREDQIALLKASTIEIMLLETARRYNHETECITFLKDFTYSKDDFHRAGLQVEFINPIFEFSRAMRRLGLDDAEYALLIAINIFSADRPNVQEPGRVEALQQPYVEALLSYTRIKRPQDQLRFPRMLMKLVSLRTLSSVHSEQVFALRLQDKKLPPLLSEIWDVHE
T2 sequence (P19793 1-462 partner): T1 sequence (P19793 1-462 partner)
Procedure: as §1, §2, §3, §4, §5, §6, §7

[3] = target: T1, LXRα; assay: LXR/LXRE co-transfection assay (luciferase reporter, CV-1 cells); format: cell-based; parameters: expressed in transfected cells; host or cells: CV-1 African Green Monkey Kidney Cells; details: for EC50: CV-1 cells, agonism; for LXRα/LXRE Eff: efficacy relative to control N-(3-((4-fluorophenyl)-(naphthalene-2-sulfonyl)-amino)propyl)-2,2-dimethylpropionamide
Excerpt: (§8) To measure the ability of compounds to activate or inhibit the transcriptional activity of LXR, in a cell based assay, the cotransfection assay may be used. It has been shown that LXR functions as a heterodimer with RXR. For the co-transfection assay, expression plasmids for LXR and RXR are introduced via transient transfection into mammalian cells along with a luciferase reporter plasmid that contains one copy of a DNA sequence that is bound by LXR-RXR heterodimers (LXRE; Willy, P. et al. 1995). Treatment of transfected cells with an LXR agonist increases the transcriptional activity of LXR, which is measured by an increase in luciferase activity.
(§9) A. Required Materials • 1. CV-1 African Green Monkey Kidney Cells • 2. Co-transfection Expression plasmids, CMX-hLXR, or CMX-hLXR, CMX-RXR, reporter (LXREx1-Tk-Luciferase), and control (CMX-Galactosidase expression vector). • 3. Transfection reagent such as FuGENE6 (Roche). • 4. 1× Cell lysis buffer (1% Triton X 100 (JT Baker X200-07), 10% Glycerol (JT Baker M778-07), 5 mM Ditriotreitol (Quantum Bioprobe DTT03; add fresh before lysing), 1 mM EGTA (Ethylene Glycol-bis (B-Amino ethyl ether)-N,N,N′,N′-Tetracetic Acid) (Sigma E-4378), 25 mM Tricine (ICN 807420) pH 7.8 • 5. 1× Luciferase assay buffer (pH at 7.8) (0.73 mM ATP, 22.3 mM Tricine, 0.11 mM EDTA 33.3 mM DTT) • 6. 1× Luciferrin/CoA (11 mM Luciferin, 3.05 mM Coenzyme A, 10 mM HEPES
(§10) B. Preparation of Screening Reagents • 1. CV-1 cells are prepared 24 hours prior to the experiment by plating them into T-175 flasks or 500 cm^2 dishes in order to achieve 70-80% confluency on the day of the transfection. The number of cells to be transfected is determined by the number of plates to be screened. Each 384 well plate requires 1.92×10^6 cells or 5000 cells per well. • 2. DNA Transfection Reagent is prepared by mixing the required plasmid DNAs with a cationic lipid transfection reagent such as DOTAP or FuGENE6 by following the instructions provided with the reagents. Optimal DNA amounts need to be determined empirically per cell line and size of vessel to be transfected. • 3. Add 10-12 mls media to the DNA Transfection Reagent and add this mixture to the cells after aspirating media from a T175 cm^2 flask. • 4. Incubate at least 5 hours at 37 degrees to prepare screening cells. • 5. Luciferase assay reagent is prepared by combining before use (per • 10 ml): • 10 ml 1× Luciferase assay buffer • 0.54 mls of 1× Luciferrin/CoA • 0.54 mls of 0.2 M Magnesium sulfate
(§11) 1. C. Procedure • 1. Prepare assay plates by dispensing 0.5 ul of 1 mM compound per well of a 384 well plate to achieve final compound concentration of 10 uM and 1% DMSO. • 2. Remove media from the screening cells, trypsinize, harvest cells by centrifugation, count the cells, and plate at 5000 cells per well in the 384 well assay plate prepared above in a volume of about 45 ul. • 3. Incubate assay plates containing both compounds and screening cells for 20 hours at 37 C. degrees. • 4. Carefully aspirate media from cells and ensure that cells are not lifted off. • 5. Add lysis buffer (30 ul/well) and incubate at least 30 minutes room temp. • 6. Add luciferase assay buffer (30 ul/well) and read assay plates on luminometer (PE Biosystems Northstar reader with on-board injectors, or equivalent). • 7. Read plates immediately after addition of luciferase assay reagent.
(§12) The LXR/LXRE co-transfection assay can be used to establish the EC50/IC50 values for potency and percent activity or inhibition for efficacy. Efficacy defines the activity of a compound relative to a high control ((N-(3-((4-fluorophenyl)-(naphthalene-2-sulfonyl)-amino)propyl)-2,2-dimethylpropionamide)) or a low control (DMSO/vehicle). The dose response curves are generated from an 8 point curve with concentrations differing by ½ LOG units. Each point represents the average of 4 wells of data from a 384 well plate. The curve for the data is generated by using the equation: Y=Bottom+(Top-Bottom)/(1+10^((LogEC50-X)*HillSlope)) […]

[4] = target: T2, LXRβ; assay: as above; format: cell-based; parameters: expressed in transfected cells; host or cells: CV-1 African Green Monkey Kidney Cells; details: for EC50: CV-1 cells, agonism; for LXRβ/LXRE Eff: efficacy relative to control N-(3-((4-fluorophenyl)-(naphthalene-2-sulfonyl)-amino)propyl)-2,2-dimethylpropionamide
Excerpt: as §8, §9, §10, §11, §12

Ki [1] [nM]	Ki [2] [nM]	EC50 [3] [nM]	LXRα/LXRE Eff [3] [%]	EC50 [4] [nM]	LXRβ/LXRE Eff [4] [%]	SMILES
690	450	3400	90	4300	72	N#Cc1c(C(F)(F)F)cc(-c2ccccc2)n(N=C2CCCCC2)c1=O [1-Cyclohexylideneamino-2-oxo-6-phenyl-4-trifluoromethyl-1,2-dihydropyridine-3-carbonitrile]
1400	580	1600	56	1800	82	N#Cc1c(C(F)(F)F)cc(-c2cccs2)n(Cc2ccccc2)c1=O [1-Benzyl-2-oxo-6-thiophen-2-yl-4-trifluoromethyl-1,2-dihydro-pyridine-3-carbonitrile]
510	120	1200	78	840	79	COc1cccc(-c2cc(C(F)(F)F)c(C#N)c(=O)n2Cc2ccccc2)c1 [1-Benzyl-6-(3-methoxy-phenyl)-2-oxo-4-trifluoromethyl-1,2-dihydro-pyridine-3-carbonitrile]
360	230	580	91	810	93	Cc1ccc(Cn2c(-c3ccccc3)cc(C(F)(F)F)c(C#N)c2=O)o1 [1-(5-Methyl-furan-2-ylmethyl)-2-oxo-6-phenyl-4-trifluoromethyl-1,2-dihydro-pyridine-3-carbonitrile]
